Measured values reported in ChEMBL document CHEMBL1154885, “Heat shock protein 90: inhibitors in clinical trials” (J Med Chem, 2010).

Tests used:
Rattus norvegicus = experiment: Toxicity in iv dosed rat assessed as maximum tolerated dose; type: organism-based; conditions: in vivo
Canis familiaris = experiment: Toxicity in iv dosed dog assessed as maximum tolerated dose; type: organism-based, Canis lupus familiaris; conditions: in vivo
[1] = Chemical stability assessed as half life; type: physicochemical
[2] = Cmax in mouse at 100 mg/kg, po; type: ADME, organism-based; parameters: dose 100 mg/kg, route oral; conditions: in vivo
[3] = Tmax in mouse at 100 mg/kg, po; type: ADME, organism-based; parameters: dose 100 mg/kg, route oral; conditions: in vivo
[4] = AUC in mouse at 100 mg/kg, po; type: ADME, organism-based; parameters: dose 100 mg/kg, route oral; conditions: plasma
[5] = Half life in mouse at 100 mg/kg, po; type: ADME, organism-based; parameters: dose 100 mg/kg, route oral; conditions: in vivo
Mus musculus = experiment: Toxicity in BALB/c mouse assessed as body weight loss at 125 mg/kg, po administered in QDx5 schedule; type: organism-based; parameters: dose 125 mg/kg, route oral; conditions: in vivo
NCI-N87 = experiment: animal or person; conditions: Mus musculus, NCI-N87, po, read-out: TGI
Description: Antitumor activity against human NCI-N87 cells xenografted in BALB/c mouse at 125 mg/kg, po administered in QDx5 schedule

BT-474 = experiment: animal or person; conditions: Mus musculus, BT-474, po, read-out: TGI
Description: Antitumor activity against human BT474 cells xenografted in BALB/c mouse at 120 mg/kg, po administered in QDx5 schedule

animal or person [6] = conditions: Homo sapiens, CWR22, po, read-out: TGI
Description: Antitumor activity against human CWR22 cells xenografted in BALB/c mouse at 120 mg/kg, po administered in QDx5 schedule

animal or person [7] = conditions: Homo sapiens, U-87 MG, po, read-out: TGI
Description: Antitumor activity against human U87 cells xenografted in BALB/c mouse at 75 mg/kg, po administered in BIDx5 schedule

SK-OV-3 = experiment: animal or person; conditions: Mus musculus, SK-OV-3, po, read-out: TGI
Description: Antitumor activity against human SKOV3 cells xenografted in BALB/c mouse at 124 mg/kg, po administered in QDx5 schedule

PANC-1 = experiment: animal or person; conditions: Mus musculus, PANC-1, po, read-out: TGI
Description: Antitumor activity against human PANC1 cells xenografted in BALB/c mouse at 124 mg/kg, po administered in QDx5 schedule

**Q.** What does the source list for `CO[C@H]1/C=C\C=C(/C)C(=O)NC2=CC(=O)C(NCCN(C)C)=C(C[C@@H](C)C[C@H](OC)[C@H](O)[C@@H](C)/C=C(\C)[C@@H]1OC(N)=O)C2=O` [ALVESPIMYCIN]?
**A.** MTD (Rattus norvegicus): 12 mg/m2; MTD (Canis familiaris): 8 mg/m2; half-life [1]: 26 min

**Q.** Which Cmax [2] does the source give for `COc1c(C)cnc(Cn2cnc3c(Cl)nc(N)nc32)c1C` [BIIB021] here?
**A.** 31 µM

**Q.** What about the Tmax [3] of the same compound?
**A.** 6 min

**Q.** And the AUC [4]?
**A.** 15 µM·h

**Q.** What about the half-life [5] of the same compound?
**A.** 48 min

**Q.** What about the Activity (Mus musculus) of the same compound?
**A.** 3%

**Q.** What about the inhibition in vivo at 125 mg/kg (NCI-N87) of the same compound?
**A.** 87%

**Q.** What about the inhibition in vivo at 120 mg/kg (BT-474) of the same compound?
**A.** 94%

**Q.** And the inhibition in vivo at 120 mg/kg (animal or person [6])?
**A.** 85%

**Q.** And the inhibition in vivo at 75 mg/kg (animal or person [7])?
**A.** 70%

**Q.** And the inhibition in vivo at 124 mg/kg (SK-OV-3)?
**A.** 67%

**Q.** What about the inhibition in vivo at 124 mg/kg (PANC-1) of the same compound?
**A.** 51%
